This is an account of results in patent publication US20040157891A1, “Inhibitor of cox” (FUJISAWA PHARMACEUTICAL CO., LTD., priority 2003, published 2004).

Data set [1] has as its target T1, COX-I (Homo sapiens, UniProt P23219).
T1 construct: Fresh blood was collected by syringe without anticoagulants from volunteers with consent; from tissue; host or cells: fresh human whole blood from volunteers, left to clot; TXB2 read-out
Briefly: Whole blood assay for COX-I (TXB2 production). Format: cell-based. Conditions: 1 hr at 37° C. The protocol:
Whole blood assay for COX-I
Fresh blood was collected by syringe without anticoagulants from volunteers with consent. The subjects had no apparent inflammatory conditions and had not taken any medication for at least 7 days prior to blood collection.
500 μL Aliquots of human whole blood were immediately incubated with 2 μL of either dimethyl sulfoxide vehicle or a test compound at final concentrations for 1 hr at 37° C. to allow the blood to clot. Appropriate treatments (no incubation) were used as blanks. At the end of the incubation, 5 μL of 250 mM Indomethacin was added to stop the reaction. The blood was centrifuged at 6000×g for 5 min at 4° C. to obtain serum. A 100 μL aliquot of serum was mixed with 400 μL methanol for protein precipitation. The supernatant was obtained by centrifuging at 6000×g for 5 min at 4° C. and was assayed for TXB2 using an enzyme immunoassay kit according to the manufacturer's procedure. For a test compound, the results were expressed as percent inhibition of thromboxane B2(TXB2) production relative to control incubations containing dimethyl sulfoxide vehicle.
The data were analyzed by that a test compound at the indicated concentrations was changed log value and was applied simple linear regression. IC50 value was calculated by least squares method.

In data set [2] the test system is arthritic rats. Briefly: Analgesic activity: effect on adjuvant arthritis in rats (Randall-Selitto). Format: in vivo, Lewis rats. Conditions: single dose 3.2 mg/kg; mechanical pain threshold of left hind paw 2 hrs after administration; ratio to non-treated rats.
The target in data set [3] is T2, COX-II (Homo sapiens, UniProt P35354).
T2 construct: incubation of the blood with 10 μL of 5 mg/mL lipopolysaccharide for 24 hrs at 37° C. for induction of COX-II; from tissue; host or cells: heparinized fresh human whole blood from volunteers, LPS-stimulated for 24 h; PGE2 read-out
T2 sequence (P35354 18-604): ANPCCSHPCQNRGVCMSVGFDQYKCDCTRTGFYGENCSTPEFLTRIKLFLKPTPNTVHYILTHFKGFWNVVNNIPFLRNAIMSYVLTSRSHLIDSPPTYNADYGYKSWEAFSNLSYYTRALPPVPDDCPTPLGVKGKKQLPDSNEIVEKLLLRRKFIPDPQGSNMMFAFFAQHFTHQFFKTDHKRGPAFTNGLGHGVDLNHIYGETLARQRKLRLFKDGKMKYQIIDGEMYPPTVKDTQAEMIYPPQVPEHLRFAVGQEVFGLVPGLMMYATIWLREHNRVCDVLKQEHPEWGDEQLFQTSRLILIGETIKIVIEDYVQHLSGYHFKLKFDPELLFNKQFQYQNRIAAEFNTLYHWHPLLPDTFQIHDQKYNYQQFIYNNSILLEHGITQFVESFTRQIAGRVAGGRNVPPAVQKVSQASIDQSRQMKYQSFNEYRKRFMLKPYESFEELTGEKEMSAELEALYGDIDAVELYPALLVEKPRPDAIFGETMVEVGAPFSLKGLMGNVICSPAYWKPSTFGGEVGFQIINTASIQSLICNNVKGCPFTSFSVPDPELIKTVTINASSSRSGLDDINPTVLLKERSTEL
The data set is described as follows: Whole blood assay for COX-II (LPS-induced PGE2 production). In kind it is cell-based. Conditions: lipopolysaccharide 24 hrs at 37° C. As to the method:
Whole Blood Assay for COX-II
Fresh blood was collected in heparinized tubes by syringe from volunteers with consent. The subjects had no apparent inflammatory conditions and had not taken any medication for at least 7 days prior to blood collection.
500 μL aliquots of human whole blood were incubated with either 2 μL dimethyl sulfoxide vehicle or 2 μL of a test compound at final concentrations for 15 min at 37° C. This was followed by incubation of the blood with 10 μL of 5 mg/mL lipopolysaccharide for 24 hrs at 37° C. for induction of COX-II. Appropriate PBS treatments (no LPS) were used as blanks. At the end of the incubation, the blood was centrifuged at 6000×g for 5 min at 4° C. to obtain plasma. A 100 μL aliquot of plasma was mixed with 400 μL methanol for protein precipitation. The supernatant was obtained by centrifuging at 6000×g for 5 min at 4° C. and was assayed for prostaglandin E2 (PGE2) using a radioimmunoassay kit after conversion of PGE2 to its methyl oximate derivative according to the manufacturer's procedure.
For a test compound, the results were expressed as percent inhibition of PGE2 production relative to control incubations containing dimethyl sulfoxide vehicle. The data were analyzed by that a test compound at the indicated concentrations was changed log value and was applied simple linear regression. IC50 value was calculated by least squares method.

pIC50: −log10 of the molar value.

T1 sequence (P23219 24-599): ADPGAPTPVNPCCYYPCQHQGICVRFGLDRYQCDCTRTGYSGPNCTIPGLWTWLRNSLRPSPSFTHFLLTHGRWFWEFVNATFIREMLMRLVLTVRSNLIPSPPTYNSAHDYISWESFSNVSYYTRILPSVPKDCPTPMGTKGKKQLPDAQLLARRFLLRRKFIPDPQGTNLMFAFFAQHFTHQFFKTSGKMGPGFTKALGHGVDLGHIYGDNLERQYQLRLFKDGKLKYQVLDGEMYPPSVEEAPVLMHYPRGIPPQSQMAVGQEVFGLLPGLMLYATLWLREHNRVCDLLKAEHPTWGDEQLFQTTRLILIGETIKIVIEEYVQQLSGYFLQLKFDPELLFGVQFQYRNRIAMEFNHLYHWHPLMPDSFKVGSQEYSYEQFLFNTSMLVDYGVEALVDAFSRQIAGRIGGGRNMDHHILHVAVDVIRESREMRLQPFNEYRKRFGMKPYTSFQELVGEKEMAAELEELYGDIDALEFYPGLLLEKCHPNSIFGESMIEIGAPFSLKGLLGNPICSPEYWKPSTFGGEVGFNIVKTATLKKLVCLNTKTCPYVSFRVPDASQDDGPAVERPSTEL

With `CCOC(=O)c1nc(-c2ccc(OC)cc2)c(-c2ccc(OC)cc2)o1` [Example 1-2, Ethyl 4,5-bis(4-methoxyphenyl)-1,3-oxazole-2-carboxylate], the melting point (in general, the temperature of the solid-liquid transition) lay in the range of 95 to 97 °C.
On to `COc1ccc(-c2nc(C(N)=O)oc2-c2ccc(OC)cc2)cc1` [Example 2, 4,5-Bis(4-methoxyphenyl)-1,3-oxazole-2-carboxamide], for which the melting point lay in the range of 133 to 135 °C.
The same measure, in the same setting: the value for `COc1ccc(-c2nc(C(C)=O)oc2-c2ccc(OC)cc2)cc1` [Example 5, 1-[4,5-Bis(4-methoxyphenyl)-1,3-oxazol-2-yl]ethanone] was 139 to 140 °C.
On the same count and under the same terms, the value for `COc1ccc(-c2nc(C(=O)c3ccccc3)oc2-c2ccc(OC)cc2)cc1` [Example 6, [4,5-Bis(4-methoxyphenyl)-1,3-oxazol-2-yl](phenyl)methanone] was 164 to 166 °C.
The compound `COc1ccc(-c2nc(C(F)F)oc2-c2ccc(OCCO)cc2)cc1` [Example 12, 2-{4-[2-(Difluoromethyl)-4-(4-methoxyphenyl)-1,3-oxazol-5-yl]phenoxy}ethanol] came in with a melting point of 114 to 116 °C. Also, the pIC50 – broadly, the IC50 on a negative log10 scale, so that one unit is a factor of ten – in data set [1] is greater than 8.00. In addition, the “The coefficient of analgesic” value in data set [2] was greater than 1.5. The same compound showed a negative-log IC50 (pIC50) in data set [3] of less than 7.00.
Take `COc1ccc(-c2nc(C(F)F)oc2-c2ccc(OCCO)cc2)cn1` [Example 33, 2-{4-[2-(Difluoromethyl)-4-(6-methoxy-3-pyridinyl)-1,3-oxazol-5-yl]phenoxy}ethanol]: the melting point lay in the range of 126 to 128 °C. In data set [1], this compound showed a pIC50 greater than 8.00. Moreover, the “The coefficient of analgesic” value in data set [2] was greater than 1.5. In data set [3], this compound had a pIC50 of less than 7.00.
On to `COc1ccc(-c2nc(C(F)(F)F)oc2-c2ccc(OCCNS(C)(=O)=O)cc2)cn1` [Example 54, N-(2-{4-[4-(6-Methoxy-3-pyridinyl)-2-(trifluoromethyl)-1,3-oxazol-5-yl]phenoxy}ethyl)methanesulfonamide], for which the values for the negative-log IC50 (pIC50) in data set [1] and in data set [3] were greater than 8.00 and less than 7.00, respectively. Further, the “The coefficient of analgesic” value in data set [2] was greater than 1.5.
For `COc1ccc(-c2nc(C(F)(F)F)oc2-c2ccc(OCCNC(N)=O)cc2)cn1` [Example 55, N-(2-{4-[4-(6-Methoxy-3-pyridinyl)-2-(trifluoromethyl)-1,3-oxazol-5-yl]phenoxy}ethyl)urea] the same measures were greater than 8.00, less than 7.00 and greater than 1.5.
`COc1ccc(-c2oc(C(=O)c3ccccc3)nc2-c2ccc(OC)nc2)cc1` [Example 73, [5-(4-Methoxyphenyl)-4-(6-methoxy-3-pyridinyl)-1,3-oxazol-2-yl](phenyl)methanone] gave a melting point of 156 to 158 °C.
Still for that read-out and setting: the value for `COc1ccc(-c2oc(C(F)F)nc2-c2ccc(OC)nc2)cc1` [Example 77, 5-[2-(Difluoromethyl)-5-(4-methoxyphenyl)-1,3-oxazol-4-yl]-2-methoxypyridine] was 87 to 89 °C.
Same read-out and setting: the value for `COc1ccc(-c2oc(CO)nc2-c2ccc(C#N)cc2)cc1` [Example 79, 4-[2-(Hydroxymethyl)-5-(4-methoxyphenyl)-1,3-oxazol-4-yl]benzonitrile] was 151 to 153 °C; that for `COCc1nc(-c2ccc(OC)cc2)c(-c2ccc(C#N)cc2)o1` [Example 80-3, 4-[2-(Methoxymethyl)-4-(4-methoxyphenyl)-1,3-oxazol-5-yl]benzonitrile] was 85 to 86 °C.
Take `COc1ccc(-c2nc(C3CC3)oc2-c2ccc(OCCO)cc2)cn1` [Example 118, 2-{4-[2-Cyclopropyl-4-(6-methoxy-3-pyridinyl)-1,3-oxazol-5-yl]phenoxy}ethanol]: the results for the pIC50 in data set [1] and in data set [3] were greater than 8.00 and less than 7.00, respectively. In addition, in data set [2], the “The coefficient of analgesic” value is greater than 1.5.
`COc1ccc(-c2nc(C3CC3)oc2-c2ccc(OCCNS(C)(=O)=O)cc2)cn1` [Example 122, N-(2-{4-[2-Cyclopropyl-4-(6-methoxy-3-pyridinyl)-1,3-oxazol-5-yl]phenoxy}ethyl)methanesulfonamide]: the pIC50 in data set [1] is greater than 8.00; in data set [3], less than 7.00. The “The coefficient of analgesic” value in data set [2] is reported as greater than 1.5.
